Measured values from patent US20220296611A1, “PHARMACEUTICAL COMPOSITION FOR PREVENTING OR TREATING CANCER” (SEOUL NATIONAL UNIVERSITY R&DB FOUNDATION, priority 2019, published 2022).

Experiments:
HeLa cells = test: Comparison of cell viability of HeLa cells (MTT assay); type: cell-based; details: 24 h and 48 h after treatment; TUDCA 1000 μM, fenbendazole 1.2 μM, doxorubicin 10 μM
Procedure: 3. MTT Assay As illustrated in the flow chart shown in FIG. 1, the degree of cytotoxicity was evaluated through MTT assay. (1) HeLa cells are cervical cancer cell lines. In this experiment, experimental groups were divided as follows: specifically, a group in which HeLa cells are not treated, that is, no treatment group (NT); a doxorubicin-treated group (Doxo); a fenbendazole-treated group (Fen); a TUDCA treated group (TUDCA); and a group treated with a mixture of fenbendazole and TUDCA (Fen+TUDCA), and cell viability was compared over time (24 h, 48 h) after treatment. […] Further, the mixture of fenbendazole and TUDCA was prepared by mixing both compounds with the above concentrations at the same dose. Further, all treatment groups were treated with the corresponding compounds at the same dose.

Hepa cells (Hepa1c1c7) = test: Comparison of cell viability of Hepa cells (MTT assay, cell number counting); type: cell-based, Murin; details: 48 h
Procedure: After culturing cells, the cells were resuspended in a fresh medium. After obtaining 200 μL of the cell suspension, […] of […] with a dilution factor of 2× was added thereto.
A hemocytometer equipped with a coverslip was prepared, and each chamber was filled with the suspension, followed by counting the number of cells. A specific counting method is as follows.
1) Live cells/ml=No. of cells counted/No. of squares counted×Dilution factor×1000
2) Dead cells/ml=No. of dead cells/No. of squares counted×Dilution factor×100
3) Percentage Viability=No. of live cells/Total No. of cells×100
As illustrated in the flow chart shown in FIG. 1, the degree of cytotoxicity was evaluated through MTT assay.
(1) In the present invention, all liver cancer cell lines were Murin hepatoma cell lines (Hepa1c1c7), hereinafter, referred to as Hepa cells. In this experiment, the following definitions were applied: no treatment group (NT); a fenbendazole treatment group (Fen); a TUDCA 200 μmol treatment group (TUDCA 200); a TUDCA 500 μmol treatment group (TUDCA 500); a TUDCA 1000 μmol treatment group (TUDCA 1000); a mixture of 1.2 μmol fenbendazole and 200 μmol TUDCA (1.2+200); a mixture of 1.2 μmol fenbendazole and 500 μmol TUDCA (1.2+500); a mixture of 1.2 μmol fenbendazole and 1000 μmol TUDCA (1.2+1000), respectively. […]

| Structure (SMILES) | apoptotic effects (cell viability of HeLa cells) compared to doxorubicin (HeLa cells) | apoptosis effect depending on the concentration of TUDCA (Hepa cells (Hepa1c1c7)) |
| --- | --- | --- |
| COC(=O)Nc1nc2ccc(Sc3ccccc3)cc2[nH]1 [fenbendazole] | more excellent apoptotic effects at 24 h and 48 h after treatment than doxorubicin | – |
| C[C@H](CCC(=O)NCCS(=O)(=O)O)[C@H]1CC[C@H]2[C@@H]3[C@@H](O)C[C@@H]4C[C@H](O)CC[C@]4(C)[C@H]3CC[C@]12C [TUDCA, tauroursodeoxycholic acid] | more excellent apoptotic effects at 24 h and 48 h after treatment than doxorubicin | the higher the concentration of TUDCA, the better the apoptosis effect at 48 h |
